Test system: MV-4-11 cells
Test: Gene expression microarray analysis (Affymetrix PrimeView) and GSEA
Format: cell-based, human
Design: RFU PODN (11730768_x_at) / Fold change /veh PODN (11730768_x_at) / RFU LINC00158 (11744669_a_at) / Fold change /veh LINC00158 (11744669_a_at) / RFU DUSP10 (11751237_a_at) / Fold change /veh DUSP10 (11751237_a_at) / RFU ID3 (11757404_x_at) / Fold change /veh ID3 (11757404_x_at) / RFU PLEKHG5 (11737974_s_at) / Fold change /veh PLEKHG5 (11737974_s_at) / RFU LRRC4B (11730491_at) / Fold change /veh LRRC4B (11730491_at) / RFU GIMAP4 (11747438_a_at) / Fold change /veh GIMAP4 (11747438_a_at) / RFU KRT8 (11758183_x_at) / Fold change /veh KRT8 (11758183_x_at) / RFU CNN1 (11734310_a_at) / Fold change /veh CNN1 (11734310_a_at) / RFU VPS37D (11726825_at) / Fold change /veh VPS37D (11726825_at) / RFU C10orf10 (11716522_x_at) / Fold change /veh C10orf10 (11716522_x_at) / RFU KIR2DL2 /// KIR2DL4 /// KIR2DL5A /// KIR2DL5B /// KIR2DS1 /// KIR2DS2 /// KIR2DS3 /// KIR2DS4 /// KIR3DL3 /// KIR3DL3 /// KIR3DS1 (11738374_at) / Fold change /veh KIR2DL2 /// KIR2DL4 /// KIR2DL5A /// KIR2DL5B /// KIR2DS1 /// KIR2DS2 /// KIR2DS3 /// KIR2DS4 /// KIR3DL3 /// KIR3DL3 /// KIR3DS1 (11738374_at) / RFU C1QL1 (11718748_at) / Fold change /veh C1QL1 (11718748_at) / RFU TMPRSS4 (11747572_a_at) / Fold change /veh TMPRSS4 (11747572_a_at) / RFU HAMP (11756126_x_at) / Fold change /veh HAMP (11756126_x_at) / RFU RNFT2 (11725882_a_at) / Fold change /veh RNFT2 (11725882_a_at) / RFU NR4A2 (11747474_a_at) / Fold change /veh NR4A2 (11747474_a_at) / RFU ABCC12 (11746883_a_at) / Fold change /veh ABCC12 (11746883_a_at) / RFU TMEM136 (11760407_x_at) / Fold change /veh TMEM136 (11760407_x_at) / RFU CLDN22 /// WWC2 (11732394_at) / Fold change /veh CLDN22 /// WWC2 (11732394_at) / RFU HLA-DPB1 (11760878_x_at) / Fold change /veh HLA-DPB1 (11760878_x_at) / RFU SPINT1 (11716480_a_at) / Fold change /veh SPINT1 (11716480_a_at) / RFU GAP43 (11754022_s_at) / Fold change /veh GAP43 (11754022_s_at) / RFU A4GNT (11735810_at) / Fold change /veh A4GNT (11735810_at) / RFU PRB3 (11715151_x_at) / Fold change /veh PRB3 (11715151_x_at) / RFU TUBB4B (11761932_at) / Fold change /veh TUBB4B (11761932_at) / RFU CAPN14 (11732068_a_at) / Fold change /veh CAPN14 (11732068_a_at) / RFU TMCC2 (11721928_a_at) / Fold change /veh TMCC2 (11721928_a_at) / RFU IRGQ (11745062_a_at) / Fold change /veh IRGQ (11745062_a_at) / RFU FAM174B (11720279_a_at) / Fold change /veh FAM174B (11720279_a_at) / RFU TMPRSS4 (11748680_a_at) / Fold change /veh TMPRSS4 (11748680_a_at) / RFU FAM212B (11763350_a_at) / Fold change /veh FAM212B (11763350_a_at) / RFU PLEKHG5 (11743358_a_at) / Fold change /veh PLEKHG5 (11743358_a_at) / RFU ZSCAN30 (11745921_a_at) / Fold change /veh ZSCAN30 (11745921_a_at) / RFU CMKLR1 (11741424_a_at) / Fold change /veh CMKLR1 (11741424_a_at) / RFU LOC101060620 /// MAPK8IP1 (11723275_at) / Fold change /veh LOC101060620 /// MAPK8IP1 (11723275_at) / RFU SPTSSB (11747773_x_at) / Fold change /veh SPTSSB (11747773_x_at) / RFU PRSS12 (11739890_at) / Fold change /veh PRSS12 (11739890_at) / RFU BIN1 (11741810_x_at) / Fold change /veh BIN1 (11741810_x_at) / RFU WNT11 (11732464_a_at) / Fold change /veh WNT11 (11732464_a_at) / RFU C10orf10 (11716521_a_at) / Fold change /veh C10orf10 (11716521_a_at) / RFU C5orf56 (11738089_at) / Fold change /veh C5orf56 (11738089_at) / RFU CYB561 (11721691_x_at) / Fold change /veh CYB561 (11721691_x_at) / RFU ANKRD19P (11752326_a_at) / Fold change /veh ANKRD19P (11752326_a_at) / RFU OR2T12 /// OR2T33 /// OR2T8 (11738714_s_at) / Fold change /veh OR2T12 /// OR2T33 /// OR2T8 (11738714_s_at) / RFU VCAN (11748164_a_at) / Fold change /veh VCAN (11748164_a_at) / RFU JSRP1 (11732532_at) / Fold change /veh JSRP1 (11732532_at) / RFU KRTAP10-11 (11738290_x_at) / Fold change /veh KRTAP10-11 (11738290_x_at) / RFU MYO3A (11730013_a_at) / Fold change /veh MYO3A (11730013_a_at) / RFU EBF3 (11725865_a_at) / Fold change /veh EBF3 (11725865_a_at) / RFU CAMK2N1 (11719241_x_at) / Fold change /veh CAMK2N1 (11719241_x_at) / RFU C5orf56 (11738088_a_at) / Fold change /veh C5orf56 (11738088_a_at) / RFU OLFML3 (11715873_a_at) / Fold change /veh OLFML3 (11715873_a_at) / RFU LOC100653217 /// NTM (11731650_a_at) / Fold change /veh LOC100653217 /// NTM (11731650_a_at) / RFU MAPK11 (11762145_a_at) / Fold change /veh MAPK11 (11762145_a_at) / RFU FIZ1 (11724087_x_at) / Fold change /veh FIZ1 (11724087_x_at) / RFU OASL (11726364_x_at) / Fold change /veh OASL (11726364_x_at) / RFU SOX15 (11748057_x_at) / Fold change /veh SOX15 (11748057_x_at) / RFU CD79A (11719716_a_at) / Fold change /veh CD79A (11719716_a_at) / RFU HIST1H1D (11736915_at) / Fold change /veh HIST1H1D (11736915_at) / RFU CASKIN2 (11723855_a_at) / Fold change /veh CASKIN2 (11723855_a_at) / RFU LOC730098 (11760151_x_at) / Fold change /veh LOC730098 (11760151_x_at) / RFU OR4N2 (11742367_at) / Fold change /veh OR4N2 (11742367_at) / RFU PRRT2 (11749266_a_at) / Fold change /veh PRRT2 (11749266_a_at) / RFU SNX32 (11753110_a_at) / Fold change /veh SNX32 (11753110_a_at) / RFU CDHR5 (11726645_a_at) / Fold change /veh CDHR5 (11726645_a_at) / RFU RCAN1 (11760418_a_at) / Fold change /veh RCAN1 (11760418_a_at) / RFU FAM167A (11723789_a_at) / Fold change /veh FAM167A (11723789_a_at) / RFU FAM26E (11764081_at) / Fold change /veh FAM26E (11764081_at) / RFU ISYNA1 (11749810_s_at) / Fold change /veh ISYNA1 (11749810_s_at) / RFU ACY1 (11761880_at) / Fold change /veh ACY1 (11761880_at) / RFU 11764098_at / Fold change /veh 11764098_at / RFU SAMD14 (11745864_x_at) / Fold change /veh SAMD14 (11745864_x_at) / RFU NPB (11741838_a_at) / Fold change /veh NPB (11741838_a_at) / RFU TMPRSS6 (11731388_a_at) / Fold change /veh TMPRSS6 (11731388_a_at) / RFU KRTAP10-2 (11738614_at) / Fold change /veh KRTAP10-2 (11738614_at) / RFU ARHGAP8 /// PRR5-ARHGAP8 (11727945_x_at) / Fold change /veh ARHGAP8 /// PRR5-ARHGAP8 (11727945_x_at) / RFU KRTAP5-7 /// NADSYN1 (11734609_at) / Fold change /veh KRTAP5-7 /// NADSYN1 (11734609_at) / RFU RASL12 (11751679_a_at) / Fold change /veh RASL12 (11751679_a_at) / RFU CDKN2B (11736163_a_at) / Fold change /veh CDKN2B (11736163_a_at) / RFU PRF1 (11729649_at) / Fold change /veh PRF1 (11729649_at) / RFU, ZNF638 /// ZNF638-IT1 / Fold change vs veh, ZNF638 /// ZNF638-IT1 / RFU, PANK3 / Fold change vs veh, PANK3 / RFU, SH3YL1 / Fold change vs veh, SH3YL1 / RFU, ZEB2 / Fold change vs veh, ZEB2 / RFU, NRIP1 / Fold change vs veh, NRIP1 / RFU, PTTG1IP / Fold change vs veh, PTTG1IP / RFU, CAPN2 / Fold change vs veh, CAPN2 / RFU, MED14 / Fold change vs veh, MED14 / RFU, SNORA58 / Fold change vs veh, SNORA58 / RFU, C1orf63 / Fold change vs veh, C1orf63 / RFU, LRRFIP1 / Fold change vs veh, LRRFIP1 / RFU, NDUFAF7 / Fold change vs veh, NDUFAF7 / RFU, SLC12A2 / Fold change vs veh, SLC12A2 / RFU, IBTK / Fold change vs veh, IBTK / RFU, ESF1 / Fold change vs veh, ESF1 / Fold change vs veh, TMEM50B / RFU, TAOK1 / Fold change vs veh, TAOK1 / RFU, ACBD3 / Fold change vs veh, ACBD3 / RFU, TMA16 / Fold change vs veh, TMA16 / RFU, RWDD3 / Fold change vs veh, RWDD3 / RFU, BCAT1 / Fold change vs veh, BCAT1 / RFU, EDEM3 / Fold change vs veh, EDEM3 / RFU, TMEM33 / Fold change vs veh, TMEM33 / RFU, WDR75 / Fold change vs veh, WDR75 / RFU, AHCTF1 / Fold change vs veh, AHCTF1 / RFU, TFRC / Fold change vs veh, TFRC / RFU, ZDHHC17 / Fold change vs veh, ZDHHC17 / RFU, NOM1 / Fold change vs veh, NOM1 / RFU, ARL8B / Fold change vs veh, ARL8B / RFU, ZBTB11 / Fold change vs veh, ZBTB11 / RFU, TAMM41 / Fold change vs veh, TAMM41 / RFU, KIAA1704 /// LOC100996395 / Fold change vs veh, KIAA1704 /// LOC100996395 / RFU, ING1 / Fold change vs veh, ING1 / RFU, TRMT61B / Fold change vs veh, TRMT61B / RFU, FUBP3 / Fold change vs veh, FUBP3 / RFU, TP53 / Fold change vs veh, TP53 / RFU, TNKS2 / Fold change vs veh, TNKS2 / RFU, ZFP14 / Fold change vs veh, ZFP14 / RFU, ACTR2 / Fold change vs veh, ACTR2 / RFU, PPP3R1 / Fold change vs veh, PPP3R1 / RFU, PIK3R1 / Fold change vs veh, PIK3R1 / RFU, HNRNPA1 / Fold change vs veh, HNRNPA1 / RFU, RNF170 / Fold change vs veh, RNF170 / RFU, ZNF28 / Fold change vs veh, ZNF28 / RFU, RNGTT / Fold change vs veh, RNGTT / RFU, OGT / Fold change vs veh, OGT / RFU, BRD1 / Fold change vs veh, BRD1 / RFU, MARS / Fold change vs veh, MARS / RFU, ZNF655 / Fold change vs veh, ZNF655 / RFU, FAHD1 / Fold change vs veh, FAHD1 / RFU, BDP1 / Fold change vs veh, BDP1 / RFU, LRRCC1 / Fold change vs veh, LRRCC1 / RFU, ARID1A / Fold change vs veh, ARID1A / RFU, ZNF146 / Fold change vs veh, ZNF146 / RFU, ZNF330 / Fold change vs veh, ZNF330 / RFU, GPN3 / Fold change vs veh, GPN3 / RFU, C9orf123 / Fold change vs veh, C9orf123 / RFU, N4BP2L2 / Fold change vs veh, N4BP2L2 / RFU, ARFIP1 / Fold change vs veh, ARFIP1 / RFU, FAM179B / Fold change vs veh, FAM179B / RFU, BCL10 / Fold change vs veh, BCL10 / RFU, UHRF1BP1L / Fold change vs veh, UHRF1BP1L / RFU, BET1 / Fold change vs veh, BET1 / RFU, CNOT2 / Fold change vs veh, CNOT2 / RFU, ZNF268 / Fold change vs veh, ZNF268 / Fold change vs veh, ZNF507 / RFU, DGCR2 / Fold change vs veh, DGCR2 / RFU, WDSUB1 / Fold change vs veh, WDSUB1 / Fold change vs veh, HSP90B1 /// MIR3652 / RFU, ADSS / Fold change vs veh, ADSS / RFU, GK / Fold change vs veh, GK / RFU, ZNF148 / Fold change vs veh, ZNF148 / RFU, TAF9 / Fold change vs veh, TAF9 / RFU, SLC1A5 / Fold change vs veh, SLC1A5 / RFU, SLMO2 / Fold change vs veh, SLMO2 / RFU, ABCC4 / Fold change vs veh, ABCC4 / RFU, LOC101060439 /// RAP1B / Fold change vs veh, LOC101060439 /// RAP1B / RFU, RFX7 / Fold change vs veh, RFX7 / RFU, GTPBP10 / Fold change vs veh, GTPBP10 / RFU, CNEP1R1 / Fold change vs veh, CNEP1R1 / RFU, BIVM-ERCC5 /// ERCC5 / Fold change vs veh, BIVM-ERCC5 /// ERCC5 / RFU, ILF3 / Fold change vs veh, ILF3 / RFU 11762660_at / Fold change /veh 11762660_at / RFU VCAN (11757783_s_at) / Fold change /veh VCAN (11757783_s_at) / RFU DDX43 (11728927_at) / Fold change /veh DDX43 (11728927_at) / RFU KRT8 (11758188_x_at) / Fold change /veh KRT8 (11758188_x_at) / RFU NKD1 (11759106_at) / Fold change /veh NKD1 (11759106_at) / RFU SRD5A1 (11742802_a_at) / Fold change /veh SRD5A1 (11742802_a_at) / RFU TPSAB1 /// TPSB2 (11721975_s_at) / Fold change /veh TPSAB1 /// TPSB2 (11721975_s_at) / RFU GSTM3 (11746129_a_at) / Fold change /veh GSTM3 (11746129_a_at) / RFU IL23R (11737362_x_at) / Fold change /veh IL23R (11737362_x_at) / RFU TMEM51 (11727254_a_at) / Fold change /veh TMEM51 (11727254_a_at) / RFU PIWIL2 (11732686_x_at) / Fold change /veh PIWIL2 (11732686_x_at) / RFU ORM1 (11744905_x_at) / Fold change /veh ORM1 (11744905_x_at) / RFU CCDC152 (11743942_at) / Fold change /veh CCDC152 (11743942_at) / RFU ECM1 (11717891_a_at) / Fold change /veh ECM1 (11717891_a_at) / RFU IL23R (11748794_a_at) / Fold change /veh IL23R (11748794_a_at) / RFU TNFAIP8L3 (11732012_x_at) / Fold change /veh TNFAIP8L3 (11732012_x_at) / RFU MBOAT4 (11741988_at) / Fold change /veh MBOAT4 (11741988_at) / RFU 11764193_at / Fold change /veh 11764193_at / RFU TMEM53 (11763286_at) / Fold change /veh TMEM53 (11763286_at) / RFU MAGEB2 (11727129_at) / Fold change /veh MAGEB2 (11727129_at) / RFU TMEM200A (11744735_a_at) / Fold change /veh TMEM200A (11744735_a_at) / RFU CCDC152 (11751479_a_at) / Fold change /veh CCDC152 (11751479_a_at) / RFU FAM211A (11726209_a_at) / Fold change /veh FAM211A (11726209_a_at) / RFU RGS16 (11746705_a_at) / Fold change /veh RGS16 (11746705_a_at) / RFU VCAN (11755009_s_at) / Fold change /veh VCAN (11755009_s_at) / RFU RHOB (11743442_s_at) / Fold change /veh RHOB (11743442_s_at) / RFU RGS16 (11720943_a_at) / Fold change /veh RGS16 (11720943_a_at) / RFU RGS16 (11720944_at) / Fold change /veh RGS16 (11720944_at) / RFU, VPS4B / Fold change vs veh, VPS4B / RFU, CREB1 / Fold change vs veh, CREB1 / RFU, DNAJC13 / Fold change vs veh, DNAJC13 / RFU, GNAQ / Fold change vs veh, GNAQ / RFU, CDK5R1 / Fold change vs veh, CDK5R1 / RFU, ZRANB3 / Fold change vs veh, ZRANB3 / RFU, CUL4A / Fold change vs veh, CUL4A / RFU, CCNY / Fold change vs veh, CCNY / RFU, UFL1 / Fold change vs veh, UFL1 / RFU, COG3 / Fold change vs veh, COG3 / RFU, DIAPH2 / Fold change vs veh, DIAPH2 / RFU, SKA2 / Fold change vs veh, SKA2 / RFU, AFF3 / Fold change vs veh, AFF3 / RFU, LMF1 / Fold change vs veh, LMF1 / RFU, IPO11 / Fold change vs veh, IPO11 / RFU, DFFB / Fold change vs veh, DFFB / RFU, FOXP1 / Fold change vs veh, FOXP1 / RFU, CARD8 / Fold change vs veh, CARD8 / RFU, STRN3 / Fold change vs veh, STRN3 / RFU, ADK / Fold change vs veh, ADK / RFU, RASSF2 / Fold change vs veh, RASSF2 / RFU, WIPF1 / Fold change vs veh, WIPF1 / RFU, LARP1B / Fold change vs veh, LARP1B / RFU, RASA1 / Fold change vs veh, RASA1 / RFU, RB1 / Fold change vs veh, RB1 / RFU, PPFIA1 / Fold change vs veh, PPFIA1 / RFU, MAT2A / Fold change vs veh, MAT2A / RFU, CCT5 / Fold change vs veh, CCT5 / RFU, WDR92 / Fold change vs veh, WDR92 / RFU, CUX1 / Fold change vs veh, CUX1 / RFU, TTC7A / Fold change vs veh, TTC7A / RFU, TMEM135 / Fold change vs veh, TMEM135 / RFU, DEPTOR / Fold change vs veh, DEPTOR / RFU, CPM / Fold change vs veh, CPM / RFU, DNAJB6 / Fold change vs veh, DNAJB6 / RFU, CACNA2D3 / Fold change vs veh, CACNA2D3 / RFU, DTX4 / Fold change vs veh, DTX4 / RFU, TFCP2 / Fold change vs veh, TFCP2 / RFU, GMCL1 /// GMCL1P1 / Fold change vs veh, GMCL1 /// GMCL1P1 / RFU, AEBP2 / Fold change vs veh, AEBP2 / RFU, SNHG1 /// SNORD22 /// SNORD25 /// SNORD26 /// SNORD27 /// SNORD28 /// SNORD29 /// SNORD31 / Fold change vs veh, SNHG1 /// SNORD22 /// SNORD25 /// SNORD26 /// SNORD27 /// SNORD28 /// SNORD29 /// SNORD31 / Fold change (Aza/veh), C12orf56 (ProbeSet 11735607_a_at) / Fold change (ACY-1035/veh), C12orf56 (ProbeSet 11735607_a_at) / Fold change (Aza/veh), FGFR1OP (ProbeSet 11751329_s_at) / Fold change (ACY-1035/veh), FGFR1OP (ProbeSet 11751329_s_at) / Fold change (Aza/veh), VPS36 (ProbeSet 11739960_a_at) / Fold change (ACY-1035/veh), VPS36 (ProbeSet 11739960_a_at) / RFU SYPL1 (11715823_x_at) / Fold change /veh SYPL1 (11715823_x_at) / RFU IGFBP7 (11715501_s_at) / Fold change /veh IGFBP7 (11715501_s_at) / RFU REEP3 (11722064_at) / Fold change /veh REEP3 (11722064_at) / RFU IGLL1 (11728026_x_at) / Fold change /veh IGLL1 (11728026_x_at): dose or concentration left out as unconfirmed
Conditions: MV-4-11 cells, 48 hours

For `Nc1ncn([C@@H]2O[C@H](CO)[C@@H](O)[C@H]2O)c(=O)n1` [azacitidine], the “RFU GAP43 (11754022_s_at)” value was 65.19 RFU.
